Reference: US7754462B2, “Enzyme catalysis in the presence of ionic liquids” (priority 2000, dated 2010)

Experiments:
Assay type in all cases: biochemical
[1] = biological target: T1, Lipase from Candida antarctica (Type B) (Moesziomyces antarcticus, UniProt P41365); test: Enantioselective acylation of R,S-1-phenylethanol in ionic liquids; conditions: 24° C., 3-4 days
Experimental: (§1) 4.4 ml of an ionic liquid in accordance with Table 3 or tert-butylmethyl ether are mixed with 122 μl of vinyl acetate and 54 μl of 1-phenyl ethanol so that a substrate solution with approximately 0.1 mol/l of 1-phenyl ethanol and 0.3 mol/l of vinyl acetate is obtained. Each 1 mg of lyophilised lipase (>120 U/mg) is mixed with 0.4 ml of substrate solution, thoroughly mixed and incubated at 24° C. for 3-4 days, shaking slightly.
(§2) This hexane/isopropanol extract is used to determine the concentrations and enantiomer ratios of 1-phenyl ethanol and 1-phenylethyl acetate using HPLC. The conversion and the enantiomer excess were calculated from these concentrations (see Table 3).

[2] = biological target: T1, Lipase from Candida antarctica (Type B); test: Recycling of the lipase in ionic liquid by distillation; conditions: 40 min at 40° C.; distillation 85° C., 0.06 mbar
Experimental: 600 mg of lyophilised lipase (approx. 10 U/mg) is mixed with 4 ml of ionic liquid (BMIm^+(CF3SO2)2N^−), 1.2 ml of vinyl acetate and 0.7 ml 1-phenyl ethanol and thoroughly mixed. The reaction mixture is incubated for 40 min at 40° C.
The non-converted educts and the reaction product […] is then distilled off (85° C., 0.06 mbar).
The enzyme/ionic liquid mixture is cooled, re-mixed with 1.2 ml of vinyl acetate and 0.7 ml of 1-phenyl ethanol and again incubated for 40 min at 40° C.

[3] = system: Lipase from Pseudomonas sp.; test: Enantioselective acylation of R,S-1-phenyl ethanol in ionic liquids; parameters: key: (+) good to better; (±) the same
Experimental: as §1
as §2, with “For further processing 100 μl of the reaction formulation is mixed with 1 ml of n-hexane/Isopropanol (97.5/2.5 v/v) and mixed thoroughly. This” for “This”
Each 3 mg of lyophilised lipase (400 U/mg) is mixed with 0.4 ml of a substrate solution as in Example 3. The further procedure corresponds to that described in Example 3.

[4] = biological target: T2, Formate dehydrogenase from Candida boidinii (FDH) (Candida boidinii, UniProt O13437); test: NAD reduction by formate dehydrogenase; enzyme activity with buffer replaced by ionic liquid; parameters: key: (+) good to better; (±) the same; conditions: 25° C., pH 7
T2 sequence (O13437 1-364): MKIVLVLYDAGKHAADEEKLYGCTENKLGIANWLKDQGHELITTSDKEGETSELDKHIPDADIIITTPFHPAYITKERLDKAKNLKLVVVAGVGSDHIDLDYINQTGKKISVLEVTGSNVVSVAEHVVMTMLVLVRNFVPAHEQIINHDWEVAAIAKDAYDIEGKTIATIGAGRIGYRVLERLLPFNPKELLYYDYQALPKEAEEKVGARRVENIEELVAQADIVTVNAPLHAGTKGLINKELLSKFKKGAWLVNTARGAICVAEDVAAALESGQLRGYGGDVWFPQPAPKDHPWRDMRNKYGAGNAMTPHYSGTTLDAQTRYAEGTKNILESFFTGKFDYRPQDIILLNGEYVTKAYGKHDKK
Experimental: The FDH-catalysed oxidation of formic acid to carbon dioxide by the reduction of nicotinamide adenine dinucleotide (NAD^+ to NADH+H^+) is used as the test reaction to determine the enzyme activity. In the enzyme assay the increase in NADH with time at 25° C. is detected photometrically at a wavelength of 340 nm.
Composition of the enzyme assay: 1 ml buffer solution (50 mM triethanolamine hydrochloride, 1 mM dithiothreitol, hydrochloric acid) pH 7 is mixed with 0.1 ml of aqueous sodium formate solution (2.4 M) and 0.1 ml of enzyme solution (0.7 mg/ml, 8.4 U). The enzyme solution already contains the cofactor NAD (6 mM).

[5] = system: Lipase from Candida antarctica (Type A); test: Enantioselective acylation of R,S-1-phenyl ethanol in ionic liquids
Experimental: as §1, §2

[6] = system: Lipase from Alcaligines sp.; test: as above
Experimental: as §1, §2

T1 sequence (P41365 26-342): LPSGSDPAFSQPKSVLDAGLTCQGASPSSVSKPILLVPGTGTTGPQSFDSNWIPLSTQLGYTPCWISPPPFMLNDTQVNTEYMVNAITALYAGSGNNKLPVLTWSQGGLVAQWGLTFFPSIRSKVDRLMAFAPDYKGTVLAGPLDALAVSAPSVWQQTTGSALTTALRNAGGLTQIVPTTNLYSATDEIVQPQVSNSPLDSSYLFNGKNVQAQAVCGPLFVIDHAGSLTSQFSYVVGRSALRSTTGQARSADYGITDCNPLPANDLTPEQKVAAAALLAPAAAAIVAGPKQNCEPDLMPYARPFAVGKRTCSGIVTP

Compound	Conversion compared to the standard reaction in tert-butylmethyl ether [1]	Enantiomer excess compared to the standard reaction in tert-butylmethyl ether [1]	lipase activity on repeated incubation and distilling off [2]	Conversion compared to the standard reaction in tert-butylmethyl ether [3]	Enantiomer excess compared to the standard reaction in tert-butylmethyl ether [3]	enzyme activity compared with the standard reaction in the buffer solution ([4]; 25 vol % ionic liquid)	enzyme activity compared with the standard reaction in the buffer solution ([4]; 50 vol % ionic liquid)	enzyme activity compared with the standard reaction in the buffer solution ([4]; 75 vol % ionic liquid)	Conversion compared to the standard reaction in tert-butylmethyl ether [5]	Enantiomer excess compared to the standard reaction in tert-butylmethyl ether [5]	Conversion compared to the standard reaction in tert-butylmethyl ether [6]	Enantiomer excess compared to the standard reaction in tert-butylmethyl ether [6]
CCCCn1cc[n+](C)c1.O=S(=O)([N-]S(=O)(=O)C(F)(F)F)C(F)(F)F [BMIm^+ (CF3SO2)2N^−]	+	+	without the lipase activity diminishing	+	+	–	–	–	–	–	–	–
Methyl-methyl-imidazolium-methyl sulphate [MMIm^+ MeSO4^−]	–	–	–	–	–	±	+	+	–	–	–	–
CCCCn1cc[n+](C)c1.F[B-](F)(F)F [BMIm^+ BF4^−, Butyl-methyl-imidazolium BF4^−]	+	+	–	–	–	–	–	–	±	+	±	+
CCCCCCn1cc[n+](C)c1.F[B-](F)(F)F [HMIm^+ BF4^−, Hexyl-methyl-imidazolium BF4^−]	±	+	–	–	–	–	–	–	+	+	±	+
CCCCn1cc[n+](C)c1.F[P-](F)(F)(F)(F)F [BMIm^+ PF6^−, Butyl-methyl-imidazolium PF6^−]	–	–	–	–	–	–	–	–	+	+	±	+
CCCC[n+]1ccc(C)cc1.F[B-](F)(F)F [4-MBP^+ BF4^−, 4-methyl-butyl-pyridinium BF4^−]	+	+	–	±	+	–	–	–	–	–	±	+
CCCCCCCCC[n+]1ccn(C)c1.F[P-](F)(F)(F)(F)F [NMIm^+ PF6^−, Nonyl-methyl-imidazolium PF6^−]	±	+	–	–	–	–	–	–	+	+	–	–
CCCCCCCCn1cc[n+](C)c1.F[B-](F)(F)F [OMIm^+ BF4^−, Octyl-methyl-imidazolium BF4^−]	+	+	–	–	–	–	–	–	+	±	±	+
CCCCn1cc[n+](C)c1.O=S(=O)([O-])C(F)(F)F [BMIm^+ CF3SO3^−, Butyl-methyl-imidazolium-trifluoro methane sulphonate (=triflate)]	+	+	–	+	+	–	–	–	+	+	±	+
